Laboratory results from ChEMBL document CHEMBL3217526, “Bioguided discovery and pharmacophore modeling of the mycotoxic indole diterpene alkaloids penitrems as breast cancer proliferation, migration, and invasion inhibitors” (Medchemcomm, 2013).

Columns and labels:
Caenorhabditis elegans [1] = assay: Toxicity in L1 stage Caenorhabditis elegans N2 assessed as viability and reproduction at 10 uM; format: organism-based; conditions: in vivo
MDA-MB-231 [2] = assay: Antimigratory activity in human MDA-MB-231 cells after 24 hrs by wound healing assay; format: functional, cell-based; conditions: MDA-MB-231, 24 h
MDA-MB-231 [3] = assay: Antiinvasive activity against human MDA-MB-231 cells assessed as inhibition of cell invasion at 15 uM after 24 hrs by BME Cell invasion assay kit; format: functional; conditions: MDA-MB-231, 24 h
MCF7 = assay: Antiproliferative activity against human MCF7 cells after 72 hrs by MTT assay; format: functional, cell-based; conditions: MCF7, 72 h
MDA-MB-231 [4] = assay: Antiproliferative activity against human MDA-MB-231 cells after 72 hrs by MTT assay; format: functional, cell-based; conditions: MDA-MB-231, 72 h
Caenorhabditis elegans [5] = assay: Toxicity in L1 stage Caenorhabditis elegans N2 assessed as viability and reproduction at 50 uM; format: organism-based; conditions: in vivo
Caenorhabditis elegans [6] = assay: In vivo inhibition of BK channel in L1 stage Caenorhabditis elegans N2 assessed as increase in reversals at 1 uM; format: organism-based
HL-60(TB) = assay: Cytotoxicity against human HL-60(TB) cells assessed as growth inhibition at 10 uM; format: functional; conditions: read-out: GI
MDA-MB-435 = assay: Cytotoxicity against human MDA-MB-435 cells assessed as growth inhibition at 10 uM; format: functional; conditions: read-out: GI
SK-MEL-2 = assay: Cytotoxicity against human SK-MEL-2 cells assessed as growth inhibition at 10 uM; format: functional; conditions: read-out: GI
SK-MEL-5 = assay: Cytotoxicity against human SK-MEL-5 cells assessed as growth inhibition at 10 uM; format: functional; conditions: read-out: GI
[7] = Cytotoxicity against human OVCAR4 cells assessed as growth inhibition at 10 uM; format: functional; conditions: OVCAR-4, read-out: GI
[8] = Cytotoxicity against human NCI-ADR-RES cells assessed as growth inhibition at 10 uM; format: functional; conditions: read-out: GI
IGROV-1 = assay: Cytotoxicity against human IGROV1 cells assessed as growth inhibition at 10 uM; format: functional; conditions: read-out: GI
SF-539 = assay: Cytotoxicity against human SF539 cells assessed as growth inhibition at 10 uM; format: functional; conditions: read-out: GI
A549 = assay: Cytotoxicity against human A549 cells assessed as growth inhibition at 10 uM; format: functional; conditions: read-out: GI
[9] = Cytotoxicity against human UO31 cells assessed as growth inhibition at 10 uM; format: functional; conditions: UO-31, read-out: GI
KM12 = assay: Cytotoxicity against human KM12 cells assessed as growth inhibition at 10 uM; format: functional; conditions: read-out: GI
[10] = Cytotoxicity against human OVCAR8 cells assessed as growth inhibition at 10 uM; format: functional; conditions: OVCAR-8, read-out: GI
Malme-3M = assay: Cytotoxicity against human MALME-3M cells assessed as growth inhibition at 10 uM; format: functional; conditions: read-out: GI
ACHN = assay: Cytotoxicity against human ACHN cells assessed as growth inhibition at 10 uM; format: functional; conditions: read-out: GI
[11] = Cytotoxicity against human HCT15 cells assessed as growth inhibition at 10 uM; format: functional; conditions: HCT-15, read-out: GI
SNB-19 = assay: Cytotoxicity against human SNB19 cells assessed as growth inhibition at 10 uM; format: functional; conditions: read-out: GI
DU-145 = assay: Cytotoxicity against human DU145 cells assessed as growth inhibition at 10 uM; format: functional; conditions: read-out: GI
COLO 205 = assay: Cytotoxicity against human COLO205 cells assessed as growth inhibition at 10 uM; format: functional; conditions: read-out: GI
[12] = Cytotoxicity against human OVCAR3 cells assessed as growth inhibition at 10 uM; format: functional; conditions: OVCAR-3, read-out: GI
RPMI-8226 = assay: Cytotoxicity against human RPMI8226 cells assessed as growth inhibition at 10 uM; format: functional; conditions: read-out: GI
NCI-H322M = assay: Cytotoxicity against human NCI-H322M cells assessed as growth inhibition at 10 uM; format: functional; conditions: read-out: GI
SNB-75 = assay: Cytotoxicity against human SNB75 cells assessed as growth inhibition at 10 uM; format: functional; conditions: read-out: GI
[13] = Cytotoxicity against human EKVX cells assessed as growth inhibition at 10 uM; format: functional; conditions: read-out: GI
LOX IMVI = assay: Cytotoxicity against human LOXIMVI cells assessed as growth inhibition at 10 uM; format: functional; conditions: read-out: GI
NCI-H460 = assay: Cytotoxicity against human NCI-H460 cells assessed as growth inhibition at 10 uM; format: functional; conditions: read-out: GI
HT-29 = assay: Cytotoxicity against human HT-29 cells assessed as growth inhibition at 10 uM; format: functional; conditions: read-out: GI
SK-MEL-28 = assay: Cytotoxicity against human SK-MEL-28 cells assessed as growth inhibition at 10 uM; format: functional; conditions: read-out: GI
NCI-H522 = assay: Cytotoxicity against human NCI-H522 cells assessed as growth inhibition at 10 uM; format: functional; conditions: read-out: GI
HCC 2998 = assay: Cytotoxicity against human HCC2998 cells assessed as growth inhibition at 10 uM; format: functional; conditions: read-out: GI
SK-OV-3 = assay: Cytotoxicity against human SKOV3 cells assessed as growth inhibition at 10 uM; format: functional; conditions: read-out: GI
RXF 393 = assay: Cytotoxicity against human RXF393 cells assessed as growth inhibition at 10 uM; format: functional; conditions: read-out: GI
SR = assay: Cytotoxicity against human SR cells assessed as growth inhibition at 10 uM; format: functional; conditions: read-out: GI
SN12C = assay: Cytotoxicity against human SN12C cells assessed as growth inhibition at 10 uM; format: functional; conditions: read-out: GI
MDA-MB-468 = assay: Cytotoxicity against human MDA-MB-468 cells assessed as growth inhibition at 10 uM; format: functional; conditions: read-out: GI
[14] = Cytotoxicity against human OVCAR5 cells assessed as growth inhibition at 10 uM; format: functional; conditions: OVCAR-5, read-out: GI
U-251 = assay: Cytotoxicity against human U251 cells assessed as growth inhibition at 10 uM; format: functional; conditions: read-out: GI
K562 = assay: Cytotoxicity against human K562 cells assessed as growth inhibition at 10 uM; format: functional; conditions: read-out: GI
HOP-62 = assay: Cytotoxicity against human HOP62 cells assessed as growth inhibition at 10 uM; format: functional; conditions: read-out: GI
PC-3 = assay: Cytotoxicity against human PC3 cells assessed as growth inhibition at 10 uM; format: functional; conditions: read-out: GI
SW-620 = assay: Cytotoxicity against human SW620 cells assessed as growth inhibition at 10 uM; format: functional; conditions: read-out: GI
CCRF-CEM = assay: Cytotoxicity against human CCRF-CEM cells assessed as growth inhibition at 10 uM; format: functional; conditions: read-out: GI
[15] = Cytotoxicity against human UACC257 cells assessed as growth inhibition at 10 uM; format: functional; conditions: UACC-257, read-out: GI
BT-549 = assay: Cytotoxicity against human BT549 cells assessed as growth inhibition at 10 uM; format: functional; conditions: read-out: GI
786-0 = assay: Cytotoxicity against human 786-0 cells assessed as growth inhibition at 10 uM; format: functional; conditions: read-out: GI
MOLT-4 = assay: Cytotoxicity against human MOLT4 cells assessed as growth inhibition at 10 uM; format: functional; conditions: read-out: GI
T47D = assay: Cytotoxicity against human T47D cells assessed as growth inhibition at 10 uM; format: functional; conditions: read-out: GI
NCI-H23 = assay: Cytotoxicity against human NCI-H23 cells assessed as growth inhibition at 10 uM; format: functional; conditions: read-out: GI
HCT-116 = assay: Cytotoxicity against human HCT116 cells assessed as growth inhibition at 10 uM; format: functional; conditions: read-out: GI
[16] = Cytotoxicity against human UACC62 cells assessed as growth inhibition at 10 uM; format: functional; conditions: UACC-62, read-out: GI
[17] = Cytotoxicity against human Hs578T cells assessed as growth inhibition at 10 uM; format: functional; conditions: Hs-578T, read-out: GI
SF-268 = assay: Cytotoxicity against human SF268 cells assessed as growth inhibition at 10 uM; format: functional; conditions: read-out: GI
MDA-MB-231 [18] = assay: Cytotoxicity against human MDA-MB-231 cells assessed as growth inhibition at 10 uM; format: functional; conditions: read-out: GI
TK-10 = assay: Cytotoxicity against human TK10 cells assessed as growth inhibition at 10 uM; format: functional; conditions: read-out: GI
NCI-H226 = assay: Cytotoxicity against human NCI-H226 cells assessed as growth inhibition at 10 uM; format: functional; conditions: read-out: GI
M14 = assay: Cytotoxicity against human M14 cells assessed as growth inhibition at 10 uM; format: functional; conditions: read-out: GI

## C=C1Cc2ccc3[nH]c4c5c3c2[C@H]2[C@@H]1C[C@H]2C(C)(C)O[C@H]5[C@@H]1CC[C@@]2(O)C3=C[C@@H](O)[C@@H](C(=C)C)O[C@H]3CC[C@]2(C)[C@@]41C [PENITREM D]
Caenorhabditis elegans [1]
  Activity: Non-toxic
MDA-MB-231 [2]
  IC50: 9.2 µM
MDA-MB-231 [3]
  inhibition at 15 µM: 50%
MCF7
  IC50: 8.3 µM
MDA-MB-231 [4]
  IC50: 29.7 µM
Caenorhabditis elegans [5]
  Activity: Non-toxic

## CC(C)=CCC[C@]1(C)[C@@H](O)CC[C@@]2(C)[C@H]1CC[C@H]1Cc3c([nH]c4ccccc34)[C@@]12C [EMINDOLE SB]
Caenorhabditis elegans [1]
  Activity: Non-toxic
MDA-MB-231 [2]
  IC50: 19 µM
MCF7
  IC50: 10.1 µM
MDA-MB-231 [4]
  IC50: 21.3 µM
Caenorhabditis elegans [6]
  Activity: Non-toxic
Caenorhabditis elegans [5]
  Activity: Non-toxic

## C=C(C)[C@H]1O[C@H]2CC[C@@]3(C)[C@@](O)(CC[C@H]4[C@@H]5OC(C)(C)[C@H]6C[C@@H]7C(=C)Cc8c(Cl)cc9[nH]c(c5c9c8[C@@]76O)[C@@]43C)[C@]23O[C@@H]3[C@H]1O [PENITREM A]
Caenorhabditis elegans [1]
  Activity: Non-toxic
Caenorhabditis elegans [6]
  Activity: Toxic
Caenorhabditis elegans [5]
  Activity: Non-toxic

## C=C1Cc2ccc3[nH]c4c5c3c2[C@H]2[C@@H]1C[C@@H]2C(C)(C)O[C@H]5[C@@H]1CC[C@@]2(O)[C@@]35O[C@@H]3[C@@H](O)[C@@H](C(=C)C)O[C@H]5CC[C@]2(C)[C@@]41C [PENITREM B]
HL-60(TB)
  inhibition of growth at 10 µM: 29%
MDA-MB-435
  inhibition of growth at 10 µM: 33.9%
Caenorhabditis elegans [1]
  Activity: Non-toxic
SK-MEL-2
  inhibition of growth at 10 µM: 87.8%
SK-MEL-5
  inhibition of growth at 10 µM: 61.1%
[7]
  inhibition of growth at 10 µM: 66.3%
[8]
  inhibition of growth at 10 µM: 56.7%
IGROV-1
  inhibition of growth at 10 µM: 54.9%
SF-539
  inhibition of growth at 10 µM: 89.8%
A549
  inhibition of growth at 10 µM: 43.1%
MDA-MB-231 [2]
  IC50: 10.3 µM
[9]
  inhibition of growth at 10 µM: 11.5%
KM12
  inhibition of growth at 10 µM: 40.9%
[10]
  inhibition of growth at 10 µM: 71.4%
Malme-3M
  inhibition of growth at 10 µM: 67.4%
ACHN
  inhibition of growth at 10 µM: 59.3%
[11]
  inhibition of growth at 10 µM: 74.3%
SNB-19
  inhibition of growth at 10 µM: 71.8%
DU-145
  inhibition of growth at 10 µM: 64.4%
COLO 205
  inhibition of growth at 10 µM: 76.5%
[12]
  inhibition of growth at 10 µM: 48.8%
RPMI-8226
  inhibition of growth at 10 µM: 20.4%
NCI-H322M
  inhibition of growth at 10 µM: 48.2%
SNB-75
  inhibition of growth at 10 µM: 68.2%
[13]
  inhibition of growth at 10 µM: 63%
LOX IMVI
  inhibition of growth at 10 µM: 39.5%
NCI-H460
  inhibition of growth at 10 µM: 50.6%
HT-29
  inhibition of growth at 10 µM: 38.4%
SK-MEL-28
  inhibition of growth at 10 µM: 94.1%
NCI-H522
  inhibition of growth at 10 µM: 78.5%
HCC 2998
  inhibition of growth at 10 µM: 107%
SK-OV-3
  inhibition of growth at 10 µM: 90.3%
RXF 393
  inhibition of growth at 10 µM: 70.3%
SR
  inhibition of growth at 10 µM: 45.9%
SN12C
  inhibition of growth at 10 µM: 38.6%
MDA-MB-468
  inhibition of growth at 10 µM: 60.7%
MDA-MB-231 [3]
  inhibition at 15 µM: 40%
[14]
  inhibition of growth at 10 µM: 102%
U-251
  inhibition of growth at 10 µM: 66.3%
MCF7
  IC50: 5.5 µM
MDA-MB-231 [4]
  IC50: 13.7 µM
K562
  inhibition of growth at 10 µM: 19.9%
HOP-62
  inhibition of growth at 10 µM: 94%
PC-3
  inhibition of growth at 10 µM: 27.8%
SW-620
  inhibition of growth at 10 µM: 64.1%
CCRF-CEM
  inhibition of growth at 10 µM: 21.3%
[15]
  inhibition of growth at 10 µM: 44.7%
BT-549
  inhibition of growth at 10 µM: 63.7%
786-0
  inhibition of growth at 10 µM: 70.3%
MOLT-4
  inhibition of growth at 10 µM: 36.4%
T47D
  inhibition of growth at 10 µM: 64.5%
NCI-H23
  inhibition of growth at 10 µM: 73.2%
HCT-116
  inhibition of growth at 10 µM: 25.3%
[16]
  inhibition of growth at 10 µM: 76.8%
[17]
  inhibition of growth at 10 µM: 42.4%
Caenorhabditis elegans [5]
  Activity: Non-toxic
SF-268
  inhibition of growth at 10 µM: 49.2%
MDA-MB-231 [18]
  inhibition of growth at 10 µM: 77.8%
TK-10
  inhibition of growth at 10 µM: 84%
NCI-H226
  inhibition of growth at 10 µM: 82.3%
M14
  inhibition of growth at 10 µM: 34.5%
